Source: the supplement of paper PMC10307832

How the values were obtained:
Assay in all cases: relative viability (nuclei count vs DMSO), 5 days (fraction); higher = more cells survive
HCC-366 = system: HCC-366
Method in brief: (§1)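 After 5 days of treatment, lung cancer cells in 1536-well plates were fixed and stained in a single step (final 0.05% Triton X-100, 1% formaldehyde, 1 ug/ml Hoechst) and their nuclei counted on 4× images. Treatment had been applied by pin tool the day after seeding as one drug alone or as a fixed anchor-drug dose with five library-drug doses (not always all listed) in √10 steps. Relative viability is the nuclei count of treated wells divided by that of vehicle wells, and values are medians of duplicate plates.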

NCI-H1355 = system: NCI-H1355
Method in brief: as §1

ChaGo-K-1 = system: ChaGo-K-1
Method in brief: as §1

NCI-H2023 = system: NCI-H2023
Method in brief: as §1

ABC-1 = system: ABC-1
Method in brief: as §1

NCI-H2085 = system: NCI-H2085
Method in brief: as §1

NCI-H1793 = system: NCI-H1793
Method in brief: as §1

NCI-H2405 = system: NCI-H2405
Method in brief: as §1

LCLC-103H = system: LCLC-103H
Method in brief: as §1

NCI-H2347 = system: NCI-H2347
Method in brief: as §1

NCI-H1734 = system: NCI-H1734
Method in brief: as §1

HCC-827 = system: HCC-827
Method in brief: as §1

HCC-15 = system: HCC-15
Method in brief: as §1

NCI-H3122 = system: NCI-H3122
Method in brief: as §1

COR-L23 = system: COR-L23
Method in brief: as §1

SW 1573 = system: SW 1573
Method in brief: as §1

NCI-H1944 = system: NCI-H1944
Method in brief: as §1

EPLC-272H = system: EPLC-272H
Method in brief: as §1

PC-14 = system: PC-14
Method in brief: as §1

HCC-44 = system: HCC-44
Method in brief: as §1

NCI-H2009 = system: NCI-H2009
Method in brief: as §1

## Cc1cn(-c2cc(NC(=O)c3ccc(C)c(Nc4nccc(-c5cccnc5)n4)c3)cc(C(F)(F)F)c2)cn1 [Nilotinib] + Nc1ncn([C@H]2C[C@H](O)[C@@H](CO)O2)c(=O)n1 [Decitabine] (partner 2 µM)
HCC-366; first compound 0.001 µM
  relative viability: 0.325
HCC-366; first compound 0.003162 µM
  relative viability: 0.348
HCC-366; first compound 0.01 µM
  relative viability: 0.41
HCC-366; first compound 0.03162 µM
  relative viability: 0.445
HCC-366; first compound 0.1 µM
  relative viability: 0.37
NCI-H1355; first compound 0.001 µM
  relative viability: 0.355
NCI-H1355; first compound 0.003162 µM
  relative viability: 0.381
NCI-H1355; first compound 0.01 µM
  relative viability: 0.382
NCI-H1355; first compound 0.03162 µM
  relative viability: 0.408
NCI-H1355; first compound 0.1 µM
  relative viability: 0.418
ChaGo-K-1; first compound 0.001 µM
  relative viability: 0.528
ChaGo-K-1; first compound 0.003162 µM
  relative viability: 0.584
ChaGo-K-1; first compound 0.01 µM
  relative viability: 0.585
ChaGo-K-1; first compound 0.03162 µM
  relative viability: 0.519
ChaGo-K-1; first compound 0.1 µM
  relative viability: 0.577
NCI-H2023; first compound 0.001 µM
  relative viability: 0.245
NCI-H2023; first compound 0.003162 µM
  relative viability: 0.296
NCI-H2023; first compound 0.01 µM
  relative viability: 0.334
NCI-H2023; first compound 0.03162 µM
  relative viability: 0.271
NCI-H2023; first compound 0.1 µM
  relative viability: 0.298
ABC-1; first compound 0.001 µM
  relative viability: 0.987
ABC-1; first compound 0.003162 µM
  relative viability: 0.946
ABC-1; first compound 0.01 µM
  relative viability: 1.05
ABC-1; first compound 0.03162 µM
  relative viability: 0.978
ABC-1; first compound 0.1 µM
  relative viability: 0.96
NCI-H2085; first compound 0.001 µM
  relative viability: 0.591
NCI-H2085; first compound 0.003162 µM
  relative viability: 0.619
NCI-H2085; first compound 0.01 µM
  relative viability: 0.675
NCI-H2085; first compound 0.03162 µM
  relative viability: 0.794
NCI-H2085; first compound 0.1 µM
  relative viability: 0.76
NCI-H1793; first compound 0.001 µM
  relative viability: 0.49
NCI-H1793; first compound 0.003162 µM
  relative viability: 0.263
NCI-H1793; first compound 0.01 µM
  relative viability: 0.87
NCI-H1793; first compound 0.03162 µM
  relative viability: 0.708
NCI-H1793; first compound 0.1 µM
  relative viability: 0.516
NCI-H2405; first compound 0.001 µM
  relative viability: 0.724
NCI-H2405; first compound 0.003162 µM
  relative viability: 0.815
NCI-H2405; first compound 0.01 µM
  relative viability: 0.798
NCI-H2405; first compound 0.03162 µM
  relative viability: 0.65
NCI-H2405; first compound 0.1 µM
  relative viability: 0.509
LCLC-103H; first compound 0.001 µM
  relative viability: 0.77
LCLC-103H; first compound 0.003162 µM
  relative viability: 0.883
LCLC-103H; first compound 0.01 µM
  relative viability: 0.815
LCLC-103H; first compound 0.03162 µM
  relative viability: 0.744
LCLC-103H; first compound 0.1 µM
  relative viability: 0.721
NCI-H2347; first compound 0.001 µM
  relative viability: 0.637
NCI-H2347; first compound 0.003162 µM
  relative viability: 0.694
NCI-H2347; first compound 0.01 µM
  relative viability: 0.718
NCI-H2347; first compound 0.03162 µM
  relative viability: 0.626
NCI-H2347; first compound 0.1 µM
  relative viability: 0.601
NCI-H1734; first compound 0.001 µM
  relative viability: 0.526
NCI-H1734; first compound 0.003162 µM
  relative viability: 0.605
NCI-H1734; first compound 0.01 µM
  relative viability: 0.629
NCI-H1734; first compound 0.03162 µM
  relative viability: 0.576
NCI-H1734; first compound 0.1 µM
  relative viability: 0.455
HCC-827; first compound 0.001 µM
  relative viability: 0.303
HCC-827; first compound 0.003162 µM
  relative viability: 0.41
HCC-827; first compound 0.03162 µM
  relative viability: 0.296
HCC-827; first compound 0.1 µM
  relative viability: 0.328
HCC-15; first compound 0.001 µM
  relative viability: 0.569
HCC-15; first compound 0.003162 µM
  relative viability: 0.77
HCC-15; first compound 0.01 µM
  relative viability: 0.718
HCC-15; first compound 0.03162 µM
  relative viability: 0.481
HCC-15; first compound 0.1 µM
  relative viability: 0.309
NCI-H3122; first compound 0.001 µM
  relative viability: 0.504
NCI-H3122; first compound 0.003162 µM
  relative viability: 0.468
NCI-H3122; first compound 0.01 µM
  relative viability: 0.505
NCI-H3122; first compound 0.03162 µM
  relative viability: 0.471
NCI-H3122; first compound 0.1 µM
  relative viability: 0.314
COR-L23; first compound 0.001 µM
  relative viability: 0.445
COR-L23; first compound 0.003162 µM
  relative viability: 0.493
COR-L23; first compound 0.01 µM
  relative viability: 0.464
COR-L23; first compound 0.03162 µM
  relative viability: 0.482
COR-L23; first compound 0.1 µM
  relative viability: 0.601
SW 1573; first compound 0.001 µM
  relative viability: 0.455
SW 1573; first compound 0.003162 µM
  relative viability: 0.622
SW 1573; first compound 0.01 µM
  relative viability: 0.924
SW 1573; first compound 0.03162 µM
  relative viability: 0.533
SW 1573; first compound 0.1 µM
  relative viability: 0.297
NCI-H1944; first compound 0.001 µM
  relative viability: 0.445
NCI-H1944; first compound 0.003162 µM
  relative viability: 0.505
NCI-H1944; first compound 0.01 µM
  relative viability: 0.512
NCI-H1944; first compound 0.03162 µM
  relative viability: 0.591
NCI-H1944; first compound 0.1 µM
  relative viability: 0.537
EPLC-272H; first compound 0.001 µM
  relative viability: 0.294
EPLC-272H; first compound 0.003162 µM
  relative viability: 0.368
EPLC-272H; first compound 0.01 µM
  relative viability: 0.436
EPLC-272H; first compound 0.03162 µM
  relative viability: 0.341
EPLC-272H; first compound 0.1 µM
  relative viability: 0.338
PC-14; first compound 0.001 µM
  relative viability: 0.24
PC-14; first compound 0.003162 µM
  relative viability: 0.263
PC-14; first compound 0.01 µM
  relative viability: 0.27
PC-14; first compound 0.03162 µM
  relative viability: 0.304
PC-14; first compound 0.1 µM
  relative viability: 0.266
HCC-44; first compound 0.001 µM
  relative viability: 0.922
HCC-44; first compound 0.003162 µM
  relative viability: 0.945
HCC-44; first compound 0.01 µM
  relative viability: 0.969
HCC-44; first compound 0.1 µM
  relative viability: 0.918
NCI-H2009; first compound 0.001 µM
  relative viability: 0.372
NCI-H2009; first compound 0.003162 µM
  relative viability: 0.393
NCI-H2009; first compound 0.01 µM
  relative viability: 0.412
NCI-H2009; first compound 0.03162 µM
  relative viability: 0.406
NCI-H2009; first compound 0.1 µM
  relative viability: 0.421
